Counter-ions that a name gives are not always drawn.

The target of one assay is full-length USP7 (Homo sapiens (Human), UniProt Q93009). Nature of the assay: Enzymatic assay to determine IC50 of USP7 inhibitors (Ubiquitin-Rhodamine 110 cleavage). It counts as biochemical. As to conditions: 0.5 nM USP7, 0.5 μM Ubiquitin-Rhodamine 110, 45 min at 37° C. As for the experimental part: For the inhibitors disclosed herein, their potency was measured using the following method.
full-length USP7, sequence (Q93009 whole entry): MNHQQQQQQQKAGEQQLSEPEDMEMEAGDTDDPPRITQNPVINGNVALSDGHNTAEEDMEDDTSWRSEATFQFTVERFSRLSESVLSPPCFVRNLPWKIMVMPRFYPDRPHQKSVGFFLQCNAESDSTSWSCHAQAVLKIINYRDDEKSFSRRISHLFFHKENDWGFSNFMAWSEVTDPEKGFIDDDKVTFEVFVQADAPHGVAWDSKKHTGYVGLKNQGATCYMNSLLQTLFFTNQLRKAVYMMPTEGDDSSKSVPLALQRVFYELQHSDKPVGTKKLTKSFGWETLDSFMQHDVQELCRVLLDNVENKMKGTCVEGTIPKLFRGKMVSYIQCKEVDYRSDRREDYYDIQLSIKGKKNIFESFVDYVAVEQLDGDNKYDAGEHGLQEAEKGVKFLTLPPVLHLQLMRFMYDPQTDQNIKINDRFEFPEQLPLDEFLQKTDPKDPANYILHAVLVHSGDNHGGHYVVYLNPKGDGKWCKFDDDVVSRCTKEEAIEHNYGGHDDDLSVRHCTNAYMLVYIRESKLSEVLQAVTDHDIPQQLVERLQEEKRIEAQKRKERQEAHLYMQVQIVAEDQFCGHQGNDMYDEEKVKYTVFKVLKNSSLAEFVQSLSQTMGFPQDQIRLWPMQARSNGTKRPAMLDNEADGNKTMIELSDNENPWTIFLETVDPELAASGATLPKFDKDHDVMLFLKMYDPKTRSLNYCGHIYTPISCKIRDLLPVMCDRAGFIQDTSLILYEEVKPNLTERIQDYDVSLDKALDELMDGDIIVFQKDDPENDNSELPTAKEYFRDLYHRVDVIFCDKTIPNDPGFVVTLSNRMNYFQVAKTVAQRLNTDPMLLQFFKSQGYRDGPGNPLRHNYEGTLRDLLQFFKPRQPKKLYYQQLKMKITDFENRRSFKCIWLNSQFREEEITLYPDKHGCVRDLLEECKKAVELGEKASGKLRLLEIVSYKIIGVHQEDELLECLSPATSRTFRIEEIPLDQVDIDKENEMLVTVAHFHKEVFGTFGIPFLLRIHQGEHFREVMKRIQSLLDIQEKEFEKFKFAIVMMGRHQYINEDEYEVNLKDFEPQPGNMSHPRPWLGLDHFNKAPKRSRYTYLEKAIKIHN
A 45 μl reaction volume containing full-length USP7 (0.5 nM) in 50 mM HEPES pH 7.5, 150 mM NaCl, 1 mM DTT, 1 mg/ml BSA and 0.05% Tween20 was assembled in wells of 96 well half area black flat bottom plates. Test compounds were first dissolved to 25 mM stocks in DMSO and subsequently introduced to enzyme 15 min after USP7 incubation with DTT at room temperature. The enzymatic reaction was started by adding 0.5 μM Ubiquitin-Rhodamine 110 (final concentration) and allowed to proceed for 45 min at 37° C., 250 RPM shaking before Rhodamine fluorescence (485 nm excitation/520 nm emission) was measured using Tecan Spark M10 plate reader.
By IC50 is commonly meant the concentration that gives 50% inhibition. Read a low IC50 as higher potency. `Cc1cc(Cl)nc(-c2ccnc3cc(CN4C(=O)C5C(C4=O)C5(C)C)sc23)c1NC1CCNC1` (centres unmarked) [Example 126, 3-((7-(6-chloro-4-methyl-3-(pyrrolidin-3-ylamino)pyridin-2-yl)thieno[3,2-b]pyridin-2-yl)methyl)-6,6-dimethyl-3-azabicyclo[3.1.0]hexane-2,4-dione tetrahydrochloride] returned an IC50 of under 500 nM.

For `Cc1nc(C(F)(F)F)cc(-c2ccnc3cc(CN4C(=O)C5C(C4=O)C5(C)C)sc23)c1CN1CCNCC1` (centres unmarked) [Example 102, 6,6-dimethyl-3-((7-(2-methyl-3-(piperazin-1-ylmethyl)-6-(trifluoromethyl)pyridin-4-yl)thieno[3,2-b]pyridin-2-yl)methyl)-3-azabicyclo[3.1.0]hexane-2,4-dione 2,2,2-trifluoroacetate], the IC50 is 1000 to 10000 nM.

For `Cc1cc(C(F)(F)F)nc(-c2ccnc3cc(CN4C(=O)C5C(C4=O)C5(C)C)sc23)c1C(=O)N1CC2CCC1CN2` (centres unmarked) [Example 156, 3-((7-(3-(2,5-diazabicyclo[2.2.2]octane-2-carbonyl)-4-methyl-6-(trifluoromethyl)pyridin-2-yl)thieno[3,2-b]pyridin-2-yl)methyl)-6,6-dimethyl-3-azabicyclo[3.1.0]hexane-2,4-dione hydrochloride], the IC50 was under 500 nM.

Compound `Cc1c([N+](=O)[O-])cc(-c2ccnc3cc(CN4C(=O)C5C(C4=O)C5(C)C)sc23)n1C[C@@H]1CNCCO1` (stereo partly drawn) [Example 154, 6,6-dimethyl-3-((7-(5-methyl-1-(((S)-morpholin-2-yl)methyl)-4-nitro-1H-pyrrol-2-yl)thieno[3,2-b]pyridin-2-yl)methyl)-3-azabicyclo[3.1.0]hexane-2,4-dione hydrochloride] displayed a concentration for half-maximal inhibition (IC50) of under 500 nM.

`Cc1cc(C(F)(F)F)nc(-c2ccnc3cc(CN4C(=O)C5C(C4=O)C5(C)C)sc23)c1C(=O)N1CC[C@H](NC(=O)[C@H](C)N)C1` (stereo partly drawn) [Example 110, (2S)-2-amino-N-((3S)-1-(2-(2-((6,6-dimethyl-2,4-dioxo-3-azabicyclo[3.1.0]hexan-3-yl)methyl)thieno[3,2-b]pyridin-7-yl)-4-methyl-6-(trifluoromethyl)nicotinoyl)pyrrolidin-3-yl)propanamide dihydrochloride] had an IC50 of 500 to 1000 nM.

`Cc1cc(C(F)(F)F)nc(-c2ccnc3cc(CN4C(=O)C5C(C4=O)C5(C)C)sc23)c1C(=O)N1CC[C@H](NC(=O)[C@@H](N)C(C)C)C1` (stereo partly drawn) [Example 109, (2S)-2-amino-N-((3S)-1-(2-(2-((6,6-dimethyl-2,4-dioxo-3-azabicyclo[3.1.0]hexan-3-yl)methyl)thieno[3,2-b]pyridin-7-yl)-4-methyl-6-(trifluoromethyl)nicotinoyl)pyrrolidin-3-yl)-3-methylbutanamide dihydrochloride] had an IC50 of under 500 nM.

`Cc1cc(C#N)nc(-c2ccnc3cc(CN4C(=O)C5C(C4=O)C5(C)C)sc23)c1C(=O)N1CCC(F)(F)C1` (centres unmarked) [Example 59, 5-(3,3-difluoropyrrolidine-1-carbonyl)-6-(2-((6,6-dimethyl-2,4-dioxo-3-azabicyclo[3.1.0]hexan-3-yl)methyl)thieno[3,2-b]pyridin-7-yl)-4-methylpicolinonitrile hydrochloride]: the IC50 was under 500 nM.

`Cc1nc(C(F)(F)F)cc(-c2ccnc3cc(CN4C(=O)C5C(C4=O)C5(C)C)sc23)c1O[C@H]1CCCNC1` (stereo partly drawn) [Example 23, 6,6-dimethyl-3-((7-(2-methyl-3-(((S)-piperidin-3-yl)oxy)-6-(trifluoromethyl)pyridin-4-yl)thieno[3,2-b]pyridin-2-yl)methyl)-3-azabicyclo[3.1.0]hexane-2,4-dione 2,2,2-trifluoroacetate] returned an IC50 of under 500 nM.

As to `Cc1cc(C(F)(F)F)nc(-c2ccnc3cc(CN4C(=O)C5C(C4=O)C5(C)C)sc23)c1C(=O)N1CCN(C)C[C@@H]1C` (stereo partly drawn) [Example 79, 3-((7-(3-((S)-2,4-dimethylpiperazine-1-carbonyl)-4-methyl-6-(trifluoromethyl)pyridin-2-yl)thieno[3,2-b]pyridin-2-yl)methyl)-6,6-dimethyl-3-azabicyclo[3.1.0]hexane-2,4-dione hydrochloride], the IC50 is under 500 nM.

With `Cc1cc(Cl)cc(-c2ccnc3cc(CC4NCCNC4=O)sc23)c1O[C@H]1CCCNC1` (stereo partly drawn) [Example 178, 3-((7-(5-chloro-3-methyl-2-(((S)-piperidin-3-yl)oxy)phenyl)thieno[3,2-b]pyridin-2-yl)methyl)piperazin-2-one hydrochloride], the IC50 is under 500 nM.

`Cc1cc(C(F)(F)F)nc(-c2ccnc3cc(CN4C(=O)C5C(C4=O)C5(C)C)sc23)c1CC1CNCCO1` (racemic) [Example 92, 6,6-dimethyl-3-((7-(4-methyl-3-(morpholin-2-ylmethyl)-6-(trifluoromethyl)pyridin-2-yl)thieno[3,2-b]pyridin-2-yl)methyl)-3-azabicyclo[3.1.0]hexane-2,4-dione 2,2,2-trifluoroacetate] registered an IC50 of under 500 nM.

On to `Cc1cc(C#N)nc(-c2ccnc3cc(CN4C(=O)C5C(C4=O)C5(C)C)sc23)c1C(=O)N1CC(F)(F)C1` (centres unmarked) [Example 51, 5-(3,3-difluoroazetidine-1-carbonyl)-6-(2-((6,6-dimethyl-2,4-dioxo-3-azabicyclo[3.1.0]hexan-3-yl)methyl)thieno[3,2-b]pyridin-7-yl)-4-methylpicolinonitrile hydrochloride], for which the IC50 is under 500 nM.

The assay is the same for the next values; noted with them: at 1 μM of the test compound; given where IC50 not determined yet; read-out: percent value of inhibition of USP7 activity.
The inhibition is the relative decrease from the control value, in per cent. With `Cc1cc(C(F)(F)F)nc(-c2ccnc3cc(CN4C(=O)C5C(C4=O)C5(C)C)sc23)c1CC1NC(=O)CNC1=O` (centres unmarked) [Example 37, 3-((7-(3-((3,6-dioxopiperazin-2-yl)methyl)-4-methyl-6-(trifluoromethyl)pyridin-2-yl)thieno[3,2-b]pyridin-2-yl)methyl)-6,6-dimethyl-3-azabicyclo[3.1.0]hexane-2,4-dione hydrochloride], the inhibition at 1 µM is under 20%.

Consider `Cc1nc(C#N)cc(-c2ccnc3cc(CN4C(=O)C5C(C4=O)C5(C)C)sc23)c1C(=O)NC1CNC1` (centres unmarked) [Example 16, N-(azetidin-3-yl)-6-cyano-4-(2-((6,6-dimethyl-2,4-dioxo-3-azabicyclo[3.1.0]hexan-3-yl)methyl)thieno[3,2-b]pyridin-7-yl)-2-methylnicotinamide hydrochloride], for which the inhibition at 1 µM was in the range of 20 to 49%.

Turning to `CC1(C)C2C(=O)N(Cc3cc4nccc(-c5cc(Cl)cnc5O[C@H]5CCCNC5)c4s3)C(=O)C21` (stereo partly drawn) [Example 161, 3-((7-(5-chloro-2-(((S)-piperidin-3-yl)oxy)pyridin-3-yl)thieno[3,2-b]pyridin-2-yl)methyl)-6,6-dimethyl-3-azabicyclo[3.1.0]hexane-2,4-dione dihydrochloride], the inhibition at 1 µM lay in the range of 50 to 70%.

Staying with this assay, now noted: read-out: percent value of inhibition of USP7 activity.
On to `CC1(C)C2C(=O)N(Cc3cc4nccc(-c5cc(C(F)(F)F)n(CC6CNCCO6)n5)c4s3)C(=O)C21` (centres unmarked) [Example 6, 6,6-dimethyl-3-((7-(1-(morpholin-2-ylmethyl)-5-(trifluoromethyl)-1H-pyrazol-3-yl)thieno[3,2-b]pyridin-2-yl)methyl)-3-azabicyclo[3.1.0]hexane-2,4-dione 2,2,2-trifluoroacetate], for which the inhibition at 1 µM is under 20%.

Turning to `Cc1ccnc(CC2CNCCO2)c1-c1ccnc2cc(CN3C(=O)C4C(C3=O)C4(C)C)sc12` (centres unmarked) [Example 93, 6,6-dimethyl-3-((7-(4-methyl-2-(morpholin-2-ylmethyl)pyridin-3-yl)thieno[3,2-b]pyridin-2-yl)methyl)-3-azabicyclo[3.1.0]hexane-2,4-dione 2,2,2-trifluoroacetate], the inhibition at 1 µM was under 20%.

For the origin of these results see patent US12404279B2, “Deubiquitinase inhibitors and methods of use thereof” (Molecure S.A., priority 2021, dated 2025).
